Assay results taken from PMC8599628 (Journal of clinical pharmacology, 2021).
Values joined by “and” are separate entries in the source; they are usually repeats but may differ in a detail not shown here. Identical values can stand only once. Like-named read-outs stand apart in the source and are kept apart here.

Tests used:
CYP3A4/5 = conditions: cited from earlier work
CYP3A = conditions: 25 mg RIL daily; cited from earlier work
[1] = cited from earlier work
[2] = cited from earlier work; remark: listed apart in the source
[3] = cited from earlier work; remark: listed apart in the source
[4] = test system: markers of immune activation; conditions: 10 mg bid for 5 weeks, virologically suppressed HIV+ participants; cited from earlier work

**Q.** For O=C1Nc2ccc(Cl)cc2[C@@](C#CC2CC2)(C(F)(F)F)O1 [EFV, efavirenz], which “median increase in plasma 4β-OHCC/cholesterol ratio” value (CYP3A4/5; 4th week after initiation of ART with EFV) is on record?
**A.** Its value is 257%.

**Q.** What about the “median increase in plasma 4β-OHCC/cholesterol ratio” value (CYP3A4/5; 16th week after initiation of ART with EFV) of the same compound?
**A.** Its value is 291%.

**Q.** What about the “median increase in plasma 4β-OHCC/cholesterol ratio” value (CYP3A4/5; 48th week after initiation of ART with EFV) of the same compound?
**A.** The value was 165%.

**Q.** For Cc1cc(/C=C/C#N)cc(C)c1Nc1ccnc(Nc2ccc(C#N)cc2)n1 [RIL, rilpivirine], which “effect on CYP3A-dependent drug metabolism” value (CYP3A) is on record?
**A.** Its value is “did not alter”.

**Q.** For N#CC[C@H](C1CCCC1)n1cc(-c2ncnc3[nH]ccc23)cn1 [ruxolitinib], which “CL/F typical value (with EFV)” value (Model IV (separated CL/F by EFV status), participants administered ART with EFV (N = 14)) is on record?
**A.** Its value is 22.5 L/h and 21.2 L/h.

**Q.** And the “IIV V1 ω^2” value (both, human, in vivo)?
**A.** Its value is 0.0607.

**Q.** What about the “IOV F ω^2” value (both, human, in vivo) of the same compound?
**A.** The value was 0.0669.

**Q.** What about the “IOV F ω^2” value (both, human, in vivo, po) of the same compound?
**A.** Its value is 0.0567.

**Q.** What about the “ruxolitinib CL/F with co-administered RIL regimens” value (co-administered RIL/FTC/TAF (N = 3) or RIL/FTC/TDF (N = 1)) of the same compound?
**A.** Its value is “not increased”.

**Q.** And the “median post hoc estimated CL/F” value (men, wk1)?
**A.** The value was 16.0 L/h.

**Q.** And the “median post hoc estimated CL/F” value (men, wk4/5)?
**A.** Its value is 14.3 L/h.

**Q.** What about the “geometric mean CL/F (post hoc, Model IV)” value (wk1, EFV/FTC/TDF group) of the same compound?
**A.** Its value is 22.3 L/h.

**Q.** And the “geometric mean CL/F (post hoc, Model IV)” value (wk1, INSTI group)?
**A.** Its value is 13.8 L/h.

**Q.** And the “mean post hoc predicted CL/F” value (wk1, N = 39)?
**A.** Its value is 16.6 L/h.

**Q.** And the “geometric mean CL/F (post hoc, Model IV)” value (wk4/5, EFV/FTC/TDF group)?
**A.** The value was 20.8 L/h.

**Q.** What about the “geometric mean CL/F (post hoc, Model IV)” value (wk4/5, INSTI group) of the same compound?
**A.** Its value is 12.7 L/h.

**Q.** What about the “mean post hoc predicted CL/F” value (wk4/5, N = 37) of the same compound?
**A.** Its value is 15.7 L/h.

**Q.** And the “median post hoc estimated CL/F” value (women, wk1)?
**A.** Its value is 15.2 L/h.

**Q.** And the “median post hoc estimated CL/F” value (women, wk4/5)?
**A.** The value was 13.6 L/h.

**Q.** What about the orally absorbed [1] of the same compound?
**A.** Its orally absorbed is greater than 95%.

**Q.** And the “IIV Ka” value [2]?
**A.** The value was 75%.

**Q.** And the “IIV V1” value [2]?
**A.** The value was 28%.

**Q.** And the “IIV V2/F” value [2]?
**A.** The value was 102%.

**Q.** And the V2 [2]?
**A.** Its V2 is 11.2 L.

**Q.** What about the “IIV CL/F” value ([2]; myelofibrosis patients) of the same compound?
**A.** Its value is 39.1%.

**Q.** What about the V1 ([2]; normalized to a mean body weight of 72.9 kg) of the same compound?
**A.** Its V1 is 58.6 L.

**Q.** What about the “reduction of ruxolitinib CL/F” value ([3]; 10 mg ruxolitinib tablet with 200 mg bid ketoconazole, N = 16) of the same compound?
**A.** The value was 91%.

**Q.** And the “reduction of ruxolitinib CL/F” value ([3]; 10 mg ruxolitinib tablet with 500 mg erythromycin, N = 15)?
**A.** Its value is 21%.

**Q.** What about the “increase in ruxolitinib CL/F” value ([3]; 30 mg ruxolitinib tablet before and after 10 days of 600 mg rifampin, healthy participants N = 12) of the same compound?
**A.** Its value is 71%.

**Q.** What about the “markers of immune activation” value [4] of the same compound?
**A.** Its value is “significantly decreased”.
